Measured values as given in US4510144A, “Methods of imparting immunomodulating activity with dihydrothiazolo purine derivatives” (Newport Pharmaceuticals International, priority 1982, dated 1985).

How the values were obtained:
[1] = test system: antibody production to sheep red blood cells (SRBC); experiment: antigen (SRBC) dependent antibody synthesis in vivo (IgM plaques); parameters: species or system Balb/C mice; conditions: for #Ig M plaques (x ± S.E.): saline control 21 ± 1.1; for % change from control, Ig M plaques: Table VIII; for % change from control, antibody response to SRBC: Table X, *P ≤ 0.001 where starred
Method: (3) Antigen (sheep red blood cell, SRBC) dependent antibody synthesis (in vivo)
There is set forth below the standard procedure which should be modified according to the solubility and other properties of the particular compound tested.
1. A solution containing 500 μg/ml NPT is prepared by adding a preweighed amount of the drup powder to sterile BPS (phosphate buffered saline) and sonicating the solution for 30 minutes.
1. NPT drug solution is made by dissolving 500 μg NPT per mil PBS.
1. A 1.4% suspension of agarose in PBS (7 g in 500 ml) is autoclaved for 15 min.
1. Mice are immunized as follows: sheep blood (sheep #23) is received weekly from Hyland labs. It is asceptically collected in two volumes of Alseviers to one volume of blood.
6. The cell count is determined and the stock solution is diluted to 4×10^7 cells/ml. This final suspension is used for immunization.
7. Each mouse is immunized by i.v. injection into the lateral tail vein (warmed in a 50° C. water bath for veinous dilation) with 0.1 ml SRBC (sheep red blood cell) suspensions; the final concentration of SRBC's is 4×10^6 per mouse.
1. Mice are treated by i.p. injection on days […], 1, 2, and 3. A syringe (1 cc) is fitted with a one-half inch, 26 gauge needle. The needle is introduced at a 45° angle along the right side of the linea alba. A 0.2 ml volume is given to both drug and control treated groups.
2. Drug groups are given 0.2 ml of a desired concentration NPT solution which, for a 20 g mouse, is […].
1. Spleens are removed asceptically and placed individually in Falcon #2025 tissue culture tubes containing 3 ml MEM. The tubes are then stored on ice.
2. Spleens are homogenized in the same tube with a teflon pestle attached to a G. K. Heller variable speed reversible motor connected with a G. K. Heller GT-21 motor controller setting #6.
6. The cell count is obtained and the stock suspension is diluted to 1×10^7 cells/ml. The Coulter counter threshhold is set at 10. Red cells are lysed with three drops of Zap isoton.
1. Thirty-five hundredths gram agarose and 0.53 grams MEM powder are placed into an Erlenmeyer flask. Fifty ml of distilled H2 O is then added to the flask.
1. Five ml sheep blood (same batch as used for immunization) is washed three times in PBS using an IEC Clinical Standard Centrifuge, speed #4 (2800 RPM) for 10 min.
1. Agar plates are removed from refrigerator and allowed to warm to room temperature. They are labeled in triplicate for each experimental group.
2. Agar-filled tubes are removed from the water bath. One-tenth of the 10% SRBC's and 0.1 ml spleen cell suspension are added to each agar tube. The tubes are agitated on a Vortex mixer.
3. The contents of the tubes are poured immediately into agar base plates and swirled until a smooth layer is formed. The plates are placed on a level surface until the agar solidifies.
4. The plates are incubated at 37° C. in a humidified atmosphere of 5% CO2 and 95% air for 90 min.
6. Plates are removed from incubator and 1 ml of the diluted complement is added to each plate.
7. Plates are then incubated another 30-45 minutes at 37° C. Plates are then removed from incubator and counted using oblique light.

[2] = test system: splenocytes from athymic mice (theta positive cells); experiment: induction of theta positive cells in splenocytes from athymic (nude) mice in vitro; type: cell-based; conditions: for percent of theta positive cells: mean of three experiments, saline control 8
Excerpt: (4) Induction of theta positive cells in nude mice (in vitro).

Influenza A/USSR 90 = experiment: inhibition of influenza virus replication (hemadsorption assay); type: cell-based; conditions: read-out: % inhibition of viral growth
Method: The ability of NPT 16416 to inhibit influenza virus replication was measured using the hemadsorption assay.

## Oc1ncnc2c1nc1n2CCS1 [NPT 16416, 3-hydroxy-7,8-dihydrothiazolo-[3,2e]-purine]
[1]; 0.05 mg/kg i.p.
  #Ig M plaques (x ± S.E.): 39 ± 3.34
  % change from control, Ig M plaques: +88%
[1]; 0.5 mg/kg i.p.
  #Ig M plaques (x ± S.E.): 35 ± 2.06
  % change from control, Ig M plaques: +66%
[1]; 5.0 mg/kg i.p.
  #Ig M plaques (x ± S.E.): 9 ± 0.37
  % change from control, Ig M plaques: -58%
[1]; SRBC immunized mice
  effect on antibody production in vivo, in words: enhancement of production of specific antibodies in vivo
[1]; 0.5 mg/kg
  % change from control, antibody response to SRBC: +66%
[1]; 5.0 mg/kg, NPT 16485 N.S.
  % change from control, antibody response to SRBC: -80%
[1]; mice, 0.05 mg/kg
  enhancement of antibody production to SRBC: 88-226%
[2]; .005-.01 μg/ml
  percent of theta positive cells: 14%
[2]; .05-.1 μg/ml
  percent of theta positive cells: 18%
[2]; .5-1.0 μg/ml
  percent of theta positive cells: 17%
[2]; in vitro
  production of theta positive (T) cells, in words: able to cause the production of T-cells from a T-cell deficient population
[2]; spleen cells from athymic mice, in vitro
  increase of theta positive cells over control values: 125%
Influenza A/USSR 90; 0.1 μg/ml
  inhibition at 0.1 µg/mL: 54%
Influenza A/USSR 90; 0.5 μg/ml
  inhibition at 0.5 µg/mL: 59%
Influenza A/USSR 90; 75 μg/ml
  inhibition at 75 µg/mL: 78%
Influenza A/USSR 90; NPT 16416 0.05 μg/ml
  inhibition at 0.05 µg/mL: 48%
